From US11607406B2, “Therapeutical methods, formulations and nutraceutical formulations” (priority 2014, dated 2023) come the findings set out here.

Series [1] relates to volunteer. Briefly: Side effects reported by the volunteers after taking the formulation or drug orally. In kind it is in vivo, human.
The test system of series [2] is volunteer. Briefly: Pre ejaculation time of volunteers after taking the formulation or drug orally. Conditions: for average pre ejaculation time: 5 minutes without the drug. In kind it is in vivo, human.
The mark [3] stands for this setting: capsule, 60 mg only, after 3 hours, repeated experiments.

As for `CNCC[C@H](Oc1cccc2ccccc12)c1cccs1` [duloxetine], the side effects result in the series on volunteer [1] (capsule, 60 mg only) is “significant side effects (stomach irritation, nausea and headache)”. In addition, the “increase in pre-ejaculation time” value in the series on volunteer [2] (setting [3]) was “no significant increase”.
For the compound `CN[C@H]1CC[C@@H](c2ccc(Cl)c(Cl)c2)c2ccccc21` [sertraline], the side effects result in the series with volunteer [1] (capsule, 60 mg only) was “significant side effects (stomach irritation, nausea and headache)”. Also, the “average pre ejaculation time” value in the series on volunteer [2] (60 mg once daily for 10 days continuously) was 10 min. The “increase in pre-ejaculation time” value in the series on volunteer [2] (setting [3]) is “no significant increase”.
Take `COc1cc2c(cc1OC)[C@@H]1Cc3ccc(OC)c(OC)c3CN1CC2` [rotundine, L-tetrahydropalmatine]: in the series on volunteer [2] (alone, taken orally 50~200 mg 1 hr before sex), the ejaculation latency result was “increase ejaculation latency”.
Turning to `COc1cccc(C2(O)CCCCC2CN(C)C)c1` (centres unmarked) [Tramadol, 2-[(dimethylamino)methyl]-1-(3-methoxyphenyl)-cyclohexanol], the “average pre ejaculation time” value in the series on volunteer [2] (20 mg only) is 10 min.
As for `CN(C)[C@@H](CCOc1cccc2ccccc12)c1ccccc1` [dapoxetine], the side effects result in the series with volunteer [1] (capsule, 60 mg only) is “significant side effects (stomach irritation, nausea and headache)”. In addition, in the series with volunteer [2] (setting [3]), the “average pre ejaculation time” value came to 20 min.
Regarding `CC(C)=CCC[C@]1(C)[C@@H](CC=C(C)C)C[C@@]2(CC=C(C)C)C(=O)[C@]1(C(=O)C(C)C)C(=O)C(CC=C(C)C)=C2O` [hyperforin], the side effects entry in the series with volunteer [1] (1 capsule, 30 mg only (hyperforin)) was “headache”. Further, the “average pre ejaculation time (change)” value with volunteer [2] (1 capsule, 10 mg only, after 2 hours) is reported as “not changed”. Besides, the “average pre ejaculation time” value with volunteer [2] (1 capsule, 30 mg only, after 2 hours, repeated tests) is “around 8 minutes”.
For the compound `CN(C)CCC[C@@]1(c2ccc(F)cc2)OCc2cc(C#N)ccc21` [escitalopram], the side effects result in the series on volunteer [1] (20 mg only, once orally) was “significant side effects”. Besides, in the series on volunteer [2] (20 mg only, once orally, after 3 hours), the “changes in pre ejaculation time” value is listed as “no significant changes”.
With `COc1cc(/C=C/C(=O)CC(=O)/C=C/c2ccc(O)c(OC)c2)ccc1O` [curcumin, diferuloylmethane], in the series on volunteer [2] (capsule with curcumin 500 mg, after 1 hours, 3 hours and 12 hours), the “changes in pre ejaculation time” value is “no significant changes”.
With `Fc1ccc([C@@H]2CCNC[C@H]2COc2ccc3c(c2)OCO3)cc1` [paroxetine], the side effects result with volunteer [1] (capsule, 30 mg only (paroxetine)) is “significant side effects (stomach irritation, nausea and headache)”. In the series with volunteer [2] (capsule, 30 mg only, after 3 hours, repeated experiments), the “average pre ejaculation time” value came out at 8 min.
